# Assays:
# Assay type in all cases: cell-based
# COLO829 = assay: MTT cell viability, COLO829 cutaneous melanoma; details: 48 h, vs control
# Experimental: (§1) Each malignant tumor cell line was cultured in Dulbecco's modified Eagle's medium (DMEM, GIBCO, Carlsbad, Calif.) supplemented with 10% fetal bovine serum (FBS, GIBCO). Cells were incubated in a humidified 5% CO2 atmosphere at 37° C. After reaching confluence, cells were detached by trypsin-EDTA solution (GIBCO), diluted 1:4-1:6, plated for subculture and were passaged routinely at a dilution of 1:4-1:6 every 4-6 days.
# (§2) All cell lines were tested in triplicates.
# MDA = assay: MTT cell viability, MDA breast cancer; details: for Cell viability: 48 h, MTT, vs control
# Experimental: as §1, §2
# SP6.5 = assay: Phase-contrast microscopy of treated uveal melanoma cells; details: SP6.5, 0, 30 and 100 μM zeaxanthin, 48 hr, 24-well plates
# Experimental: FIGS. 2A, 2B and 2C illustrate the phase-contrast photomicrographs of uveal melanoma cells which have been treated with three different concentrations of zeaxanthin. Uveal melanoma cells (SP6.5 cell line) were seeded into 24-well plates and treated with zeaxanthin at 0 μM (2A), 30 μM (2B), and 100 μM (2C) levels for 48 hr.
# Viability of cells treated with zeaxanthin was also visualized in the following tests. In these tests, the same amount of uveal melanoma cells were cultured and treated with zeaxanthin at different concentrations, and the treated cells were examined under microscope. Specifically, the uveal melanoma cell line SP6.5 was seeded into 24-well plates and treated with zeaxanthin at final concentrations of 0 μM, 30 μM, and 100 μM for 48 hr. […] The number of cells alive in FIG. 2A is more than that in FIG. 2B, which in turn is more than that in FIG. 2C.
# T-47D = assay: MTT cell viability, T-47D breast cancer; details: 48 h, vs control
# Experimental: as §1, §2
# [1] = tested on: uveal melanoma cells (SP6.5); assay: Annexin V-FITC staining apoptosis analysis
# Experimental: FIG. 3 illustrates the fluorescence photomicrograph of pro-apoptotic effects of zeaxanthin on uveal melanoma cells after annexin V-FTIC staining. Melanoma cells (SP6.5 cell line) were treated by zeaxanthin at a concentration of 100 μM for 24 hr, and the extent of apoptosis was determined by annexin V-FTIC staining. Cells were observed under fluorescence microscope using 492 nm and 530 nm filters for recognizing and detecting FITC.
# In these tests, we measured the extent of apoptosis of cells treated with zeaxanthin by annexin V-FITC staining analysis. Specifically, uveal melanoma cells (SP6.5) were plated into 8-well plates at a density of 6×10^4 cells/well. After culturing for 24 hours, cells were treated with zeaxanthin at final concentration of 10, 30, and 100 μM for another 24 hours in a CO2 incubator at 37C. Then the culture medium was aspirated and the cells were washed with the binding buffer in preparation for annexin V-FITC staining analysis. FITC-annexin V was added into each well and the cells were stained for 15 min in the dark, followed by washing with the binding buffer. The cells were then observed under fluorescence microscope using 492 nm and 530 nm filters that facilitate FITC fluorescence detection to measure the extent of apoptosis based on the principle that cell membranes of apoptotic cells were stained bright green in color.
# Hep G2 = assay: MTT cell viability, Hep G2 hepatocellular carcinoma; details: 48 h, vs control
# Experimental: as §1, §2
# HCT116 = assay: MTT cell viability, HCT116 colon cancer; details: 48 h, vs control
# Experimental: as §1, §2
# NCI-H820 = assay: MTT cell viability, NCI-H820 lung cancer; details: 48 h, vs control
# Experimental: as §1, §2
compound,measurement,setting,value
CC1=C(/C=C/C(C)=C/C=C/C(C)=C/C=C/C=C(C)/C=C/C=C(C)/C=C/C2=C(C)C[C@@H](O)CC2(C)C)C(C)(C)C[C@H](O)C1 [zeaxanthin],Cell viability,"COLO829; COLO829, 10 μM zeaxanthin",73 ± 4.6%
same,Cell viability,"COLO829; COLO829, 30 μM zeaxanthin",52 ± 2.0%
same,Cell viability,"COLO829; COLO829, 100 μM zeaxanthin",28 ± 1.2%
same,Cell viability,MDA; 10 μM zeaxanthin,97 ± 6.36%
same,Cell viability,MDA; 30 μM zeaxanthin,95 ± 5.1%
same,Cell viability,MDA; 100 μM zeaxanthin,92 ± 9.2%
same,decrease of cell viability after zeaxanthin treatment,MDA; final concentration as high as 100 μM,did not see statistically significant decrease of cell viability
same,number of cells seen under microscope,SP6.5,the number of cells in the culture that could be seen under microscope decreased progressively
same,Cell viability,T-47D; 10 μM zeaxanthin,83 ± 4.2%
same,Cell viability,T-47D; 30 μM zeaxanthin,57 ± 3.5%
same,Cell viability,T-47D; 100 μM zeaxanthin,31 ± 1.4%
same,annexin V staining of the cell membrane (apoptotic cells),"[1]; SP6.5, 100 μM zeaxanthin, 24 hr, FIG. 3",numerous cells showed staining of the cell membrane with annexin V
same,extent of apoptosis (annexin V-FITC staining),"[1]; SP6.5, 10, 30 and 100 μM zeaxanthin, 24 hours",apoptosis in uveal melanoma cells induced by zeaxanthin in a dose-dependent manner
same,Cell viability,"Hep G2; Hep G2, 10 μM zeaxanthin",79 ± 3.7%
same,Cell viability,"Hep G2; Hep G2, 30 μM zeaxanthin",58 ± 1.8%
same,Cell viability,"Hep G2; Hep G2, 100 μM zeaxanthin",32 ± 1.2%
same,Cell viability,"HCT116; HCT116, 10 μM zeaxanthin",67 ± 3.7%
same,Cell viability,"HCT116; HCT116, 30 μM zeaxanthin",56 ± 2.3%
same,Cell viability,"HCT116; HCT116, 100 μM zeaxanthin",16 ± 1.4%
same,Cell viability,"NCI-H820; NCI-H820, 10 μM zeaxanthin",76 ± 4.5%
same,Cell viability,"NCI-H820; NCI-H820, 30 μM zeaxanthin",68 ± 3.1%
same,Cell viability,"NCI-H820; NCI-H820, 100 μM zeaxanthin",38 ± 1.7%

# — patent publication US20170014354A1, “ZEAXANTHIN FOR TUMOR TREATMENT” (The New York Eye and Ear Infirmary, priority 2012, published 2017)
